How the values were obtained:
[1] = tested on: normal NK cells expanded with K562-aAPC; experiment: percent inhibition of viability; higher = more inhibition; settings: 72 h, IL-2 2.5 ng/mL
Description: (§1)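 Drug sensitivity and resistance testing on K562-aAPC-expanded normal NK cells: 5 concentrations (10-fold steps over a 10,000-fold range), 72 h at 37 °C, viability by CellTiter-Glo normalised to DMSO and benzethonium chloride controls; DSS from the fitted curve.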

[2] = tested on: DERL-7 (IL-2 2.5 ng/mL); experiment: as above; settings: 72 h
[3] = tested on: IMC-1 (IL-2 20 ng/mL); experiment: as above; settings: 72 h
[4] = tested on: KAI3 (IL-2 2.5 ng/mL); experiment: as above; settings: 72 h
[5] = tested on: KHYG-1 (IL-2 2.5 ng/mL); experiment: as above; settings: 72 h
[6] = tested on: NK-92 (IL-2 2.5 ng/mL); experiment: as above; settings: 72 h
[7] = tested on: NK-YS (IL-2 2.5 ng/mL); experiment: as above; settings: 72 h
[8] = tested on: NKL (IL-2 2.5 ng/mL); experiment: as above; settings: 72 h
[9] = tested on: SNK-6 (IL-2 2.5 ng/mL); experiment: as above; settings: 72 h
[10] = tested on: YT (IL-2 2.5 ng/mL); experiment: as above; settings: 72 h
[11] = tested on: normal primary NK cells, pool 1 (3 donors) (IL-2 2.5 ng/mL); experiment: as above; settings: 72 h
[12] = tested on: normal primary NK cells, pool 1 (3 donors), resting (IL-2 0 ng/mL); experiment: as above; settings: 72 h
[13] = tested on: normal primary NK cells, pool 2 (3 donors) (IL-2 2.5 ng/mL); experiment: as above; settings: 72 h
[14] = tested on: normal primary NK cells, pool 3 (3 donors) (IL-2 2.5 ng/mL); experiment: as above; settings: 72 h
[15] = tested on: normal NK cells expanded with K562-aAPC; experiment: drug sensitivity score (DSS) (DSS units); higher = more sensitive; extreme values may be limits of the assay; settings: 72 h; IL-2 2.5 ng/mL
Description: as §1

[16] = tested on: DERL-7 (IL-2 2.5 ng/mL); experiment: as above; settings: 72 h
[17] = tested on: IMC-1 (IL-2 20 ng/mL); experiment: as above; settings: 72 h
[18] = tested on: KAI3 (IL-2 2.5 ng/mL); experiment: as above; settings: 72 h
[19] = tested on: KHYG-1 (IL-2 2.5 ng/mL); experiment: as above; settings: 72 h
[20] = tested on: NK-92 (IL-2 2.5 ng/mL); experiment: as above; settings: 72 h
[21] = tested on: NK-YS (IL-2 2.5 ng/mL); experiment: as above; settings: 72 h
[22] = tested on: NKL (IL-2 2.5 ng/mL); experiment: as above; settings: 72 h
[23] = tested on: SNK-6 (IL-2 2.5 ng/mL); experiment: as above; settings: 72 h
[24] = tested on: YT (IL-2 2.5 ng/mL); experiment: as above; settings: 72 h
[25] = tested on: normal primary NK cells, pool 1 (3 donors) (IL-2 2.5 ng/mL); experiment: as above; settings: 72 h
[26] = tested on: normal primary NK cells, pool 1 (3 donors), resting (IL-2 0 ng/mL); experiment: as above; settings: 72 h
[27] = tested on: normal primary NK cells, pool 2 (3 donors) (IL-2 2.5 ng/mL); experiment: as above; settings: 72 h
[28] = tested on: normal primary NK cells, pool 3 (3 donors) (IL-2 2.5 ng/mL); experiment: as above; settings: 72 h

Nc1nc(N)c2nc(-c3cccc(O)c3)c(-c3cccc(O)c3)nc2n1 [TG100-115] (max concentration tested 10000 nM)
percent inhibition of viability [%]
Settings	1 nM	10 nM	100 nM	1000 nM	10000 nM
[1]	-2.77	-3.08	0.07	6.14	26.9
[2]	-6.88	-4.08	5.03	-4.31	3.35
[3]	-0.94	5.84	4.32	14.9	34.2
[4]	-5.91	4.12	-4.09	-1.44	13.4
[5]	0.48	4.75	4.43	9.36	24.5
[6]	-2.65	1.92	7.95	3.09	17.8
[7]	-1.11	-1.59	0.64	4.73	8.38
[8]	-7.69	-0.08	0.45	6.08	27.7
[9]	0.36	13.3	17.1	53.8	39
[10]	1.25	2.49	4.53	4.76	12.3
[11]	6.61	-12.2	-0.36	-3.46	18.8
[12]	0.41	-21.8	-6.01	-19	16.1
[13]	-11.3	-4.42	12.3	5.35	21.7
[14]	-6.73	-4.4	7.77	-1.79	13.7

Settings	drug sensitivity score
[15]	2.01
[16]	0
[17]	2.97
[18]	0
[19]	1.47
[20]	0.35
[21]	0
[22]	2.07
[23]	10.8
[24]	0
[25]	0.36
[26]	0.1
[27]	1.02
[28]	0.09

Reference: the supplement of paper PMC5908809
